One series deals with HCN2 (Homo sapiens (Human), UniProt Q9UL51). The series is described as follows: HCN2 current assay using PatchXpress 7000A. The class given is cell-based. The note with it: PatchXpress protocol; read-out: PX HCN2 IC50. Summed up: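 Automated patch clamp (PatchXpress 7000A) at about 22° C. HCN current taken as leak-subtracted peak inward current at the end of a step to −110 mV, with a return to −30 mV for 8 seconds. Cumulative concentrations applied 7 minutes each; amplitude normalised to control.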

A further series addresses hERG channel (Homo sapiens (Human), UniProt Q12809). Nature of the series: hERG assay using IonWorks Quattro. Particulars: IonWorks protocol; read-out: IW hERG IC50. The class given is cell-based. On the procedure:
Example 127A, Using IonWorks Quattro
Solutions for recording hERG currents were:
This was followed by a […] step of is to −30 mV to evoke the hERG tail current. This sequence was repeated 5 times at a frequency of 0.25 Hz (see FIG. 3). Currents were measured from the tail step at the 5th pulse and referenced to the holding current. Compounds were then incubated for 6-7 minutes prior to a second measurement of the hERG signal using an identical pulse train.

For the next series, the target named is HCN4 (Homo sapiens (Human), UniProt Q9Y3Q4). Nature of the series: HCN4 current assay using PatchXpress 7000A. The class given is cell-based. The note with it: PatchXpress protocol; read-out: PX HCN4 IC50. Summed up: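 Peak inward current taken at end of a −130 mV pulse, leak-subtracted, and normalized to the control amplitude. Cumulative concentrations applied for 7 min each at room temperature (approximately 22° C.) on an automated patch-clamp platform.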
HCN4, sequence (Q9Y3Q4 whole entry, species assumed): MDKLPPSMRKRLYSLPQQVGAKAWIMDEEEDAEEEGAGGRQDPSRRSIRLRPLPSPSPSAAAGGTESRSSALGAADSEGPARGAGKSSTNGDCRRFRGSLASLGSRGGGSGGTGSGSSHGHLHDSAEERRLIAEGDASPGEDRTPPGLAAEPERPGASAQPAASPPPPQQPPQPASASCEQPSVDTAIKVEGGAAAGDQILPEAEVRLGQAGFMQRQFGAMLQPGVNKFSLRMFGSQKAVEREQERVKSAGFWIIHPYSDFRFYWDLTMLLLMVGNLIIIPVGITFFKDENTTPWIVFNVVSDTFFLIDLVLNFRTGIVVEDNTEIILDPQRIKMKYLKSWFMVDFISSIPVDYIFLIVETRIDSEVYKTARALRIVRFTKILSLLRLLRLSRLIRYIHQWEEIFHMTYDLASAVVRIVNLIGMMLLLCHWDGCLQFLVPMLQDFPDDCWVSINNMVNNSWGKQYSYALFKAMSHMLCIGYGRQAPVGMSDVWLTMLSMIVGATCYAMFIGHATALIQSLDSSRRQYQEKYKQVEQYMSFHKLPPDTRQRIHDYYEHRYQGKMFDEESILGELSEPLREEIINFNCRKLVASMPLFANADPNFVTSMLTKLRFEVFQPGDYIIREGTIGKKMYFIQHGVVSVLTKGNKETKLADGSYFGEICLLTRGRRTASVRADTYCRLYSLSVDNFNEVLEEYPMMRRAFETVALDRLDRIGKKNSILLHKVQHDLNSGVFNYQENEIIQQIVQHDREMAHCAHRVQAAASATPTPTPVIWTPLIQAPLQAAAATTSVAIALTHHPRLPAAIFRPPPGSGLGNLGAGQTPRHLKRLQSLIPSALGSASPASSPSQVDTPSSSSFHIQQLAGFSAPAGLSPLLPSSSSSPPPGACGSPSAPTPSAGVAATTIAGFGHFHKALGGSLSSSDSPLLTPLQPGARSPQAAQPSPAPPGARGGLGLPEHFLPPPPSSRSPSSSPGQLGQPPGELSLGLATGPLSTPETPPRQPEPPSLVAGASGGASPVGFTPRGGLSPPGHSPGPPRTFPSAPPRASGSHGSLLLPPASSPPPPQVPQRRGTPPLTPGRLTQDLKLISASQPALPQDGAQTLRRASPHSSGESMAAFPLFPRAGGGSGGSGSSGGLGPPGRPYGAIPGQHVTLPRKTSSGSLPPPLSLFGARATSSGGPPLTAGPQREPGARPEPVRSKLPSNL

The target of the next series is MDR1 (P-glycoprotein) (Homo sapiens (Human), UniProt P08183). Nature of the series: in vitro. Particulars: dog, MDCK-MDR1, pH 7.4.
MDR1 (P-glycoprotein), sequence (P08183 whole entry): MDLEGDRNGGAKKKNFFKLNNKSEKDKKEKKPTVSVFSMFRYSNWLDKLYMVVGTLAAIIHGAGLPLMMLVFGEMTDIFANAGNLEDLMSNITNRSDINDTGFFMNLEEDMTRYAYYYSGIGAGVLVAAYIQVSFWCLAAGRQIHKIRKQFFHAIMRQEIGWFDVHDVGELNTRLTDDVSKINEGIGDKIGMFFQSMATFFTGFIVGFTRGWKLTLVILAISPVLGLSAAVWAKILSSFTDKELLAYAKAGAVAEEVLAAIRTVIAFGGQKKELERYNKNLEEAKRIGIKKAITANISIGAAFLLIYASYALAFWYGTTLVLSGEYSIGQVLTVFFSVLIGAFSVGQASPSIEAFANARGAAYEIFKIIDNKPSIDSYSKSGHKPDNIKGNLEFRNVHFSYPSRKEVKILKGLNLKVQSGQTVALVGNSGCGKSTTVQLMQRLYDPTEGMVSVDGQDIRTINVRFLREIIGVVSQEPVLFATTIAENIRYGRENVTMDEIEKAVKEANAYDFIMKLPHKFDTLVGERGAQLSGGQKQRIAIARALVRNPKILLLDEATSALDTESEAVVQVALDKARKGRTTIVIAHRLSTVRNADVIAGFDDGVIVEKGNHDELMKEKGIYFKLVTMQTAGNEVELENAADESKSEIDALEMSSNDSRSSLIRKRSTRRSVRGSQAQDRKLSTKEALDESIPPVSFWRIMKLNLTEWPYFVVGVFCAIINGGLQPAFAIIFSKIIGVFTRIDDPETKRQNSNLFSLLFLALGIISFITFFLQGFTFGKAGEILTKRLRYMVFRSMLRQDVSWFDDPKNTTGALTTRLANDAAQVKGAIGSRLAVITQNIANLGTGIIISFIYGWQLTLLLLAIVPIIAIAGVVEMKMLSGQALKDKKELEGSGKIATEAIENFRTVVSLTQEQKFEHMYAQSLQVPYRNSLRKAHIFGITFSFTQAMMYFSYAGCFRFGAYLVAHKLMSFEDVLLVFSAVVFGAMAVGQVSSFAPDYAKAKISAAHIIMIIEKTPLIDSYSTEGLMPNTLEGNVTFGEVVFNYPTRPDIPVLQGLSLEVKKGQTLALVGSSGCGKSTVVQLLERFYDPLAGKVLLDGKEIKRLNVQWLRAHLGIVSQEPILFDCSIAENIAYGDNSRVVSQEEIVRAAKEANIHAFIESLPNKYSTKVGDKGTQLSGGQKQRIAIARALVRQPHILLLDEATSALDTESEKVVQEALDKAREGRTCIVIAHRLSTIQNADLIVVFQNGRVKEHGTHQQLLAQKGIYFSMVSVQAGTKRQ
In the next series the target is hNav1.5 (Homo sapiens (Human), UniProt Q14524).
Another series addresses HCN1 (Homo sapiens (Human), UniProt O60741). The series is described as follows: HCN1 current assay using PatchXpress 7000A. The class given is cell-based. Particulars: PatchXpress protocol; read-out: PX HCN1 IC50. On the procedure:
Example 126A, Using PatchXpress 7000A
Solutions for recording HCN currents were:
The membrane voltage was then stepped back to −30 mV for a further 8 seconds.
The peak inward current measured at the end of the pulse to −110 mV (HCN1 and HCN2) or −130 mV (HCN4) was measured and any leak current subtracted to calculate the HCN current. The HCN current amplitude was measured after each control or compound addition and normalized to the control amplitude (Control A).
All experiments were performed at room temperature (approximately 22° C.).
Each test compound concentration was applied to the cell for seven (7) minutes, at which point the next cumulative concentration was applied.

Counter-ions that a name gives are not always drawn.

In general, IC50 refers to the concentration that inhibits the measured activity by half. Usually efflux ratio stands for a quotient of directional permeabilities that is used to spot active efflux.

HCN1, sequence (O60741 whole entry, species assumed): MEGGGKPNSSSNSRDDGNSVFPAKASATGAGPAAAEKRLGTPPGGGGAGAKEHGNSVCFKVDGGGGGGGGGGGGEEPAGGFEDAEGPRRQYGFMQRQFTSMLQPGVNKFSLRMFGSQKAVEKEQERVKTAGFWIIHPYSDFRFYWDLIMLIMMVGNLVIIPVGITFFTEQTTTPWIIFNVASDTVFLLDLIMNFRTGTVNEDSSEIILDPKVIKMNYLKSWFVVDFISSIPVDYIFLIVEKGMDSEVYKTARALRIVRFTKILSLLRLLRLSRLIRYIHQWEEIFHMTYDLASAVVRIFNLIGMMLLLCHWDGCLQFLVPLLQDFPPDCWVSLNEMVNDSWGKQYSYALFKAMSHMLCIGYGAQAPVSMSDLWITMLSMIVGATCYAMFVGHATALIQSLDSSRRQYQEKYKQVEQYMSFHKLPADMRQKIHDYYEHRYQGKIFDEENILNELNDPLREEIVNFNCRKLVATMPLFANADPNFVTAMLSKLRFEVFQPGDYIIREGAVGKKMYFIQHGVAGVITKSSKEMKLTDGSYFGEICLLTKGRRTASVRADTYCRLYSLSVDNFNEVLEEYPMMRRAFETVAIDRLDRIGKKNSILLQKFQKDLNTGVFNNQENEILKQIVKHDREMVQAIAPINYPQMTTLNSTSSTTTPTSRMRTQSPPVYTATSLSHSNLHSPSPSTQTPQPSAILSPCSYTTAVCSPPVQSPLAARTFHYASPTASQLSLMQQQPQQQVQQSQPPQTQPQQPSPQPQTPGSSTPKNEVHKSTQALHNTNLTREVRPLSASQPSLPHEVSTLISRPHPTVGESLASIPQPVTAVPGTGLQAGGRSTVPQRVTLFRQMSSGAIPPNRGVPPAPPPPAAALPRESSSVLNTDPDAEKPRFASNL
hERG channel, sequence (Q12809 whole entry): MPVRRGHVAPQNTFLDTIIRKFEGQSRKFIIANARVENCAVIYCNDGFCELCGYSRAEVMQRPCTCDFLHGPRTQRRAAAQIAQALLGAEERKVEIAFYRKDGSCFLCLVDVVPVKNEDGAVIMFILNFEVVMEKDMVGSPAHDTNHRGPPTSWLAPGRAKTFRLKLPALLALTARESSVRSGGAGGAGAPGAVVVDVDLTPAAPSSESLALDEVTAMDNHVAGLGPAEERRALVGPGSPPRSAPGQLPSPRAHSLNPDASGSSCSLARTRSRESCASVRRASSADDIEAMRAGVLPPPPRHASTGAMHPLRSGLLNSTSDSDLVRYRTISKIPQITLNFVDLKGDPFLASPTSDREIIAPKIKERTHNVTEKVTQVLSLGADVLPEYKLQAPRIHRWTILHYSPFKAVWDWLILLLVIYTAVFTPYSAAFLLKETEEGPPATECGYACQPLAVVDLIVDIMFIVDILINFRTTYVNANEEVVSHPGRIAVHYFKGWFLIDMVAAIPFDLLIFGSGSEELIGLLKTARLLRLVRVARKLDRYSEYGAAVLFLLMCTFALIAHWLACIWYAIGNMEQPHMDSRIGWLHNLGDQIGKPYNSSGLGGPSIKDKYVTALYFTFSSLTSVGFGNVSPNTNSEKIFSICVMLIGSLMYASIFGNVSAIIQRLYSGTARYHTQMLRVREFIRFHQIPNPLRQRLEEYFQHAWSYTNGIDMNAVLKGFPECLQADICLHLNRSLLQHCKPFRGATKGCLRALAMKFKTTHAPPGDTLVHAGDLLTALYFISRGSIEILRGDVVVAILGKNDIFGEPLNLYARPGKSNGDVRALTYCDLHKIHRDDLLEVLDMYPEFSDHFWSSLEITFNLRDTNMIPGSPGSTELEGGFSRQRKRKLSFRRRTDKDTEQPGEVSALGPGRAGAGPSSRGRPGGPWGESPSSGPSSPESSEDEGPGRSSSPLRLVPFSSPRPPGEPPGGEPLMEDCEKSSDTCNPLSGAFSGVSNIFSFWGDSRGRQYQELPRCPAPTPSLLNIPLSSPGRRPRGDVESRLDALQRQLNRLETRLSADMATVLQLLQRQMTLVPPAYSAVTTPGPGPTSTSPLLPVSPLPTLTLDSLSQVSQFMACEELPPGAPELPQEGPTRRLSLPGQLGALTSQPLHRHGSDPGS
Method for MDR1 (P-glycoprotein): Test compounds were added (10 μM, 0.1% DMSO final, n=2) to donor compartments of the Transwell plate assembly in assay buffer (Hanks balanced salt solution supplemented with 25 mM HEPES, adjusted to pH 7.4) for both apical to basolateral (A>B) and basolateral to apical (B>A) measurements. A parallel series of incubations were performed in the presence of the transporter inhibitor elacridar (5 μM) which was added to both compartments in the transwell plate. Incubations were performed at 37° C., with samples removed from both donor and acceptor chambers at T=0 and 1 hour for recovery assessment and compound analysed by mass spectrometry (LC-MS/MS), including an analytical internal standard.
Apparent permeability (Papp) values were determined from the relationship:
Where V is the volume of each Transwell compartment (apical 125 μL, basolateral 600 μL), and concentrations are the relative MS responses for compound (normalized to internal standard) in the donor chamber before incubation and acceptor chamber at the end of the incubation.
Area=area of cells exposed for drug transfer (0.33 cm2).
Efflux ratios (Papp B>A/Papp A>B) were calculated for each compound from the mean Papp values in each direction. […] The efflux ratios were also calculated in the same way from the runs carried out in the presence of the inhibitor. The net flux is the ratio of the efflux in the absence of inhibitor to that in the presence of inhibitor.
Lucifer Yellow (LY) was added to the apical buffer in all wells to assess viability of the cell layer.
Compound recovery from the wells was determined from MS responses (normalized to internal standard) in donor and acceptor chambers at the end of incubation compared to response in the donor chamber pre-incubation.
Method for hNav1.5: Solutions for recording Nav1.5 currents were:
Electrophysiological recordings were made from a human embryonic kidney (HEK) cell line stably expressing the full length hNav1.5. Population patch clamp measurements were made in the perforated patch clamp configuration (100 μg ml^−1 amphotericin) at room temperature (approx. 22° C.) using an IonWorks Quattro from Molecular Devices. […] Currents were first measured under control (pre-compound addition) conditions. […] Currents were measured from the depolarising step at the 15th pulse and referenced to the holding current.

Turning to `COCc1ccc2c(-c3ccccc3[C@@H](N)Cc3ccccn3)noc2c1` [Example 39, (S)-1-[2-(6-Methoxymethylbenzo[d]isoxazol-3-yl)phenyl]-2-(pyridine-2-yl)ethan-1-amine], the concentration for half-maximal inhibition (IC50) was 4 µM at HCN2, 7.6 µM on hERG channel, more than 30 µM on HCN4 and 27.3 µM on hNav1.5. In addition, the efflux ratio at 1 h, 10 μM on MDR1 (P-glycoprotein) was 2.7.
For `N[C@@H](Cc1ncccc1F)c1ccccc1-c1noc2ccccc12` [Example 63, (S)-1-[2-(Benzo[d]isoxazol-3-yl)phenyl]-2-(3-fluoropyridin-2-yl)ethan-1-amine hydrochloride], the values for the half-maximal inhibitory concentration (IC50) on HCN2, at HCN1 and at HCN4 were 0.5 µM, 8 µM and more than 30 µM, respectively.
The corresponding values for `N#Cc1ccc(F)c(C[C@H](N)c2ccccc2-c2noc3ccccc23)n1` [Example 71, (S)-1-[2-(Benzo[d]isoxazol-3-yl)phenyl]-2-(6-cyano-3-fluoropyridin-2-yl)ethan-1-amine formate] are 0.5 µM, 4.4 µM and 3.5 µM.
As for `CN(C)C(=O)c1cccc(C[C@H](N)c2ccccc2-c2noc3ccccc23)n1` [Example 89, (S)-6-{2-Amino-2-[2-(Benzo[d]isoxazol-3-yl)phenyl]ethyl-N,N-dimethylpyridine-2-carboxamide hydrochloride], the half-maximal inhibitory concentration (IC50) was 3.1 µM at HCN2, 19.1 µM at hERG channel, more than 30 µM at HCN4 and 5.8 µM against hNav1.5. The efflux ratio at 1 h, 10 μM on MDR1 (P-glycoprotein) is 24.6.
Take `N[C@@H](Cc1ccccn1)c1ccccc1-c1noc2ccccc12` [Example 42, (S)-1-[2-(Benzo[d]isoxazol-3-yl)phenyl]-2-(pyridine-2-yl)ethan-1-amine hydrochloride]: the IC50 is 1.1 µM at HCN2, 3.8 µM at hERG channel, more than 30 µM on HCN4 and 6.9 µM on hNav1.5. Besides, the efflux ratio at 1 h, 10 μM at MDR1 (P-glycoprotein) was 1.5.
For the compound `N[C@@H](Cc1ccc(F)cn1)c1ccccc1-c1noc2ccccc12` [Example 69, (S)-1-[2-(Benzo[d]isoxazol-3-yl)phenyl]-2-(5-fluoropyridin-2-yl)ethan-1-amine hydrochloride], the values for the half-inhibitory concentration (IC50) on HCN2, at HCN1 and on HCN4 were 0.5 µM, 1.4 µM and 8.2 µM, respectively.
As to `N#Cc1ccc2c(-c3ccccc3[C@@H](N)Cc3cccc(C#N)n3)noc2c1` [Example 95, (S)-1-[2-(6-Cyanobenzo[d]isoxazol-3-yl)phenyl]-2-(6-cyanopyridine-2-yl)ethan-1-amine], the IC50 was 1.4 µM on HCN2, 2.9 µM at hERG channel, more than 30 µM at HCN4 and more than 33 µM against hNav1.5. In addition, the efflux ratio at 1 h, 10 μM on MDR1 (P-glycoprotein) worked out at 4.5.
For the compound `Cc1cccc(C[C@H](N)c2ccccc2-c2noc3ccccc23)n1` [Example 114, (S)-1-[2-(Benzo[d]isoxazol-3-yl)phenyl]-2-(6-methylpyridine-2-yl)ethan-1-amine hydrochloride], the half-inhibitory concentration (IC50) on HCN2 was 0.62 µM; at HCN1, 4.5 µM; at HCN4 it was 9 µM.
For `N[C@@H](Cc1ccccn1)c1ccccc1-c1noc2cc(CO)ccc12` [Example 30, (S)-1-[2-(6-Hyroxymethylbenzo[d]isoxazol-3-yl)phenyl]-2-(pyridine-2-yl)ethan-1-amine hydrochloride] the same measures were 3 µM, 3 µM and 12.8 µM.
For the compound `N[C@@H](Cc1cccc(-c2cn[nH]c2)n1)c1ccccc1-c1noc2ccccc12` [Example 91, (S)-2-[6-(1H-Pyrazol-4-yl)pyridine-2-yl])-1-[2-(benzo[d]isoxazol-3-yl)phenyl]ethan-1-amine hydrochloride], the IC50 was 1 µM on HCN2, 1.8 µM on hERG channel, 9.9 µM at HCN4 and 3.4 µM at hNav1.5. Besides, on MDR1 (P-glycoprotein), the efflux ratio at 1 h, 10 μM is 23.1.
The corresponding values for `N#Cc1ccc2c(-c3ccccc3[C@@H](N)Cc3cccc(OCCO)n3)noc2c1` [Example 99, (S)-1-[2-(6-Cyanobenzo[d]isoxazol-3-yl)phenyl]-2-[6-(2-hydroxyethoxyl)pyridine-2-yl]ethan-1-amine hydrochloride] are 2.4 µM, 2.1 µM, more than 30 µM, 18.5 µM and 78.5.
For `COc1ccnc(C[C@H](N)c2ccccc2-c2noc3ccccc23)c1` [Example 70, (S)-1-[2-(Benzo[d]isoxazol-3-yl)phenyl]-2-(4-methoxypyridin-2-yl)ethan-1-amine], the half-maximal inhibitory concentration (IC50) on HCN2 stood at 1 µM; at HCN1 it was 3.8 µM; at HCN4 it was 19.1 µM.
In the case of `N[C@@H](Cc1ccccn1)c1c(F)cccc1-c1noc2ccccc12` [Example 111, (S)-1-[2-(Benzo[d]isoxazol-3-yl)-6-fluorophenyl]-2-(pyridin-2-yl)ethan-1-amine hydrochloride], the IC50 is 1.8 µM on HCN2, 7.4 µM at hERG channel, more than 30 µM on HCN4 and 27.9 µM at hNav1.5. Besides, the efflux ratio at 1 h, 10 μM on MDR1 (P-glycoprotein) was 1.
For `CNc1cccc(C[C@H](N)c2ccccc2-c2noc3cc(C#N)ccc23)n1` [Example 97, (S)-1-[2-(6-Cyanobenzo[d]isoxazol-3-yl)phenyl]-2-(6-methylaminopyridine-2-yl)ethan-1-amine dihydrochloride] the same measures were 2.6 µM, 0.54 µM, 13.3 µM, 8.4 µM and 12.2.
For `Cc1cccc(-c2noc3ccccc23)c1[C@@H](N)Cc1ccccn1` [Example 84, (S)-1-[2-(Benzo[d]isoxazol-3-yl)-6-methylphenyl]-2-(pyridine-2-yl)ethan-1-amine hydrochloride] the same measures were 0.9 µM, 3 µM, 27 µM, 5.7 µM and 0.8.
On to `Cc1ccc(-c2noc3ccccc23)c([C@@H](N)Cc2ccccn2)c1` [Example 36, (S)-1-[2-(Benzo[d]isoxazol-3-yl)-5-methylphenyl]-2-(pyridine-2-yl)ethan-1-amine hydrochloride], for which the IC50 was 1.2 µM on HCN2, 5 µM on hERG channel, more than 30 µM at HCN4 and 5.6 µM at hNav1.5. For the same compound, the efflux ratio at 1 h, 10 μM at MDR1 (P-glycoprotein) was determined as 0.8.
For `Cn1cc(-c2cccc(C[C@H](N)c3ccccc3-c3noc4ccccc34)n2)cn1` [Example 90, (S)-1-[2-(Benzo[d]isoxazol-3-yl)phenyl]-2-[6-(1-methyl-1H-pyrazol-4-yl)pyridine-2-yl]ethan-1-amine hydrochloride], the 50% inhibitory concentration (IC50) at HCN2 is 2.9 µM; on hERG channel, 4.1 µM; on HCN4, 7.1 µM; against hNav1.5, 10.6 µM.
As to `N[C@@H](Cc1cccc(CCO)n1)c1ccccc1-c1noc2ccccc12` [Example 100, (S)-1-[2-(Benzo[d]isoxazol-3-yl)phenyl]-2-[6-(2-hydroxyethyl)pyridine-2-yl]ethan-1-amine hydrochloride], the concentration for half-maximal inhibition (IC50) on HCN2 was 2.3 µM; at hERG channel it was 12.8 µM; at HCN4 it was more than 30 µM; on hNav1.5, 2.8 µM. Besides, the efflux ratio at 1 h, 10 μM at MDR1 (P-glycoprotein) amounted to 8.7.
Regarding `Nc1cccc(C[C@H](N)c2ccccc2-c2noc3ccccc23)n1` [Example 121, (S)-6-{2-Amino-2-[2-(benzo[d]isoxazol-3-yl)phenyl]ethyl}pyridine-2-amine hydrochloride], the concentration for half-maximal inhibition (IC50) on HCN2 was 1.3 µM; at hERG channel it was 8.6 µM; on HCN4, more than 30 µM; against hNav1.5, 1.6 µM.
Turning to `Cc1cccc(C[C@H](N)c2ccccc2-c2nn(C)c3ccccc23)n1` [Example 61, (S)-1-[2-(1-Methyl-1H-indazole-3-yl)phenyl]-2-(6-methylpyridine-2-yl)ethan-1-amine hydrochloride], the IC50 on HCN2 is 3.5 µM; at hERG channel, 0.46 µM; at HCN4, more than 30 µM; against hNav1.5, 6.7 µM.
For the compound `N[C@@H](Cc1ncccn1)c1ccccc1-c1noc2ccccc12` [Example 56, (S)-1-[2-(Benzo[d]isoxazol-3-yl)phenyl]-2-(pyrimidine-2-yl)ethan-1-amine], the IC50 at HCN2 was found to be 1.2 µM; on hERG channel it was 14.4 µM; on HCN4, 30 µM; on hNav1.5 it was 7 µM. At MDR1 (P-glycoprotein), the efflux ratio at 1 h, 10 μM worked out at 2.5.

The record behind these values is patent US20240190854A1, “PYRIMIDINE OR PYRIDINE DERIVATIVES USEFUL AS HCN2 MODULATORS” (King's College London, priority 2021, published 2024).
